The values that follow come from US20120108636A1, “Allosteric Enhancers of th A1 Adenosine Receptor” (King Pharmaceuticals Research and Development, Inc., priority 2008, published 2012).

As a reminder, the melting point is the temperature, or range, at which the solid turns liquid. For the compound `COCCOc1ccc(-c2sc(N)c(C(=O)c3ccc(Cl)cc3)c2CN(C2CCCCC2)C2CCCCC2)cc1`, the melting point lay within 162 to 164 °C.
As for `N#Cc1ccc(-c2sc(N)c(C(=O)c3ccc(Cl)cc3)c2CN(C2CCCCC2)C2CCCCC2)cc1` [Example 10, {2-Amino-5-(4-cyanophenyl)-4-[(dicyclohexylamino)methyl]thiophen-3-yl}(4-chlorophenyl)methanone], the figure is 196 to 200 °C.
As to `CC(C)(C)c1ccc(-c2sc(N)c(C(=O)c3ccc(Cl)cc3)c2CN(C2CCCCC2)C2CCCCC2)cc1` [Example 11, {2-Amino-5-(4-t-butylphenyl)-4-[(dicyclohexylamino)methyl]thiophen-3-yl}(4-chlorophenyl)methanone], the melting point fell in the range of 180 to 184 °C.
Under `Nc1sc(-c2ccc(Cl)cc2)c(CN(C2CCCCC2)C2CCCCC2)c1C(=O)c1ccc(Cl)cc1` [Example 12, {2-Amino-5-(4-chlorophenyl)-4-[(dicyclohexylamino)methyl]thiophen-3-yl}(4-chlorophenyl)methanone] stands 200 to 204 °C.
As for `Nc1sc(-c2ccccc2F)c(CN(C2CCCCC2)C2CCCCC2)c1C(=O)c1ccc(Cl)cc1` [Example 13, {2-Amino-4-[(dicyclohexylamino)methyl]-5-(2-fluorophenyl)thiophen-3-yl}(4-chlorophenyl)methanone], the figure is 223 to 225 °C; as for `Nc1sc(-c2cccc(F)c2)c(CN(C2CCCCC2)C2CCCCC2)c1C(=O)c1ccc(Cl)cc1` [Example 14, {2-Amino-4-[(dicyclohexylamino)methyl]-5-(3-fluorophenyl)thiophen-3-yl}(4-chlorophenyl)methanone], 205 to 207 °C.
In the case of `Nc1sc(-c2ccc(F)cc2)c(CN(C2CCCCC2)C2CCCCC2)c1C(=O)c1ccc(Cl)cc1` [Example 15, {2-Amino-4-[(dicyclohexylamino)methyl]-5-(4-fluorophenyl)thiophen-3-yl}(4-chlorophenyl)methanone], the melting point was in the range of 222 to 224 °C.
As for `CC(C)CN(Cc1c(-c2ccccc2)sc(N)c1C(=O)c1ccc(Cl)cc1)CC(C)C` [Example 16-2, {2-Amino-4-[(diisobutylamino)methyl]-5-phenylthiophen-3-yl}(4-chlorophenyl)methanone], the figure is 127 to 133 °C; as for `Nc1sc(-c2ccccc2)c(CN(C2CCCC2)C2CCCC2)c1C(=O)c1ccc(Cl)cc1` [Example 16-4, {2-Amino-4-[(dicyclopentylamino)methyl]-5-phenylthiophen-3-yl}(4-chlorophenyl)methanone], 135 to 141 °C; as for `CCCN(Cc1c(-c2ccccc2)sc(N)c1C(=O)c1ccc(Cl)cc1)C1CCCCC1` [Example 16-5, {2-Amino-4-[(cyclohexyl(propyl)amino)methyl]-5-phenylthiophen-3-yl}(4-chlorophenyl)methanone], 162 to 165 °C.
Under `C=CCN(Cc1c(-c2ccccc2)sc(N)c1C(=O)c1ccc(Cl)cc1)C1CCCCC1` [Example 16-6] stands 151 to 157 °C; under `COC(=O)CN(C)Cc1c(-c2ccccc2)sc(N)c1C(=O)c1ccc(Cl)cc1` [Example 16-7], 156.5 to 160 °C.
For `COCCN(CCOC)Cc1c(-c2ccccc2)sc(N)c1C(=O)c1ccc(Cl)cc1` [Example 16-8, {2-Amino-4-[(bis(2-methoxyethyl)amino)methyl]-5-phenylthiophen-3-yl}(4-chlorophenyl)methanone], the melting point was 140 to 145 °C.
The compound `Nc1sc(-c2ccccc2)c(CNC23CC4CC(CC(C4)C2)C3)c1C(=O)c1ccc(Cl)cc1` [Example 16-10, {2-Amino-4-[(1-adamantylamino)methyl]-5-phenylthiophen-3-yl}(4-chlorophenyl)methanone] had a melting point of 135 to 140 °C.
Under `CN(Cc1c(-c2ccccc2)sc(N)c1C(=O)c1ccc(Cl)cc1)c1ccc(Cl)c(Cl)c1` [Example 16-11, {2-Amino-4-[((3,4-dichlorophenyl)(methyl)amino)methyl]-5-phenylthiophen-3-yl}(4-chlorophenyl)methanone] stands 80 to 84 °C.
Consider `COc1ccc(N(C)Cc2c(-c3ccccc3)sc(N)c2C(=O)c2ccc(Cl)cc2)cc1` [Example 16-12, {2-Amino-4-[((4-methoxyphenyl)(methyl)amino)methyl]-5-phenylthiophen-3-yl}(4-chlorophenyl)methanone], for which the melting point fell in the range of 131.5 to 136 °C.
`Cc1ccc(N(C)Cc2c(-c3ccccc3)sc(N)c2C(=O)c2ccc(Cl)cc2)cc1` [Example 16-13, {2-Amino-4-[((4-methylphenyl)(methyl)amino)methyl]-5-phenylthiophen-3-yl}(4-chlorophenyl)methanone] came in with a melting point of 173 to 176 °C.
As for `Nc1sc(-c2ccc(Cl)c(Cl)c2)c(CN(C2CCCCC2)C2CCCCC2)c1C(=O)c1ccc(Cl)cc1` [Example 16-14, {2-Amino-5-(3,4-dichlorophenyl)-4-[(dicyclohexylamino)methyl]thiophen-3-yl}(4-chlorophenyl)methanone], the figure is 222 to 225 °C; as for `CC(C)Oc1ccc(-c2sc(N)c(C(=O)c3ccc(Cl)cc3)c2CN(C2CCCCC2)C2CCCCC2)cc1` [Example 16-15, {2-Amino-4-[(dicyclohexylamino)methyl]-5-(4-isopropoxyphenyl)thiophen-3-yl}(4-chlorophenyl)methanone], 175 to 177 °C.
As for `Nc1sc(-c2cc(F)cc(F)c2)c(CN(C2CCCCC2)C2CCCCC2)c1C(=O)c1ccc(Cl)cc1` [Example 17, {2-Amino-4-[(dicyclohexylamino)methyl]-5-(3,5-difluorophenyl)thiophen-3-yl}(4-chlorophenyl)methanone], the melting point fell in the range of 163 to 166 °C.
Under `Cc1ccc(-c2sc(N)c(C(=O)c3ccc(Cl)cc3)c2CN(C2CCCCC2)C2CCCCC2)cc1` [Example 18, {2-Amino-4-[(dicyclohexylamino)methyl]-5-(4-methylphenyl)thiophen-3-yl}(4-chlorophenyl)methanone] stands 191 to 194 °C.
As to `COc1ccc(-c2sc(N)c(C(=O)c3ccc(Cl)cc3)c2CN(C2CCCCC2)C2CCCCC2)cc1` [Example 19, {2-Amino-4-[(dicyclohexylamino)methyl]-5-(4-methoxyphenyl)thiophen-3-yl}(4-chlorophenyl)methanone], the melting point was 178 to 182 °C.
For the compound `Nc1sc(-c2ccoc2)c(CN(C2CCCCC2)C2CCCCC2)c1C(=O)c1ccc(Cl)cc1` [Example 29, {2-Amino-[(dicyclohexylamino)methyl]-5-(furan-3-yl)thiophen-3-yl}(4-chlorophenyl)methanone], the melting point was 132 to 135 °C.
As for `Nc1sc(-c2ccco2)c(CN(C2CCCCC2)C2CCCCC2)c1C(=O)c1ccc(Cl)cc1` [Example 31, {2-Amino-4-[(dicyclohexylamino)methyl]-5-(furan-2-yl)thiophen-3-yl}(4-chlorophenyl)methanone], the figure is 158 to 160 °C; as for `Nc1sc(-c2ccc(Cl)s2)c(CN(C2CCCCC2)C2CCCCC2)c1C(=O)c1ccc(Cl)cc1` [Example 32, {5-Amino-5′-chloro-3-[(dicyclohexylamino)methyl]-2,2′-bithiophen-4-yl}(4-chlorophenyl)methanone], 195 to 197 °C.
As for `Nc1sc(-c2ccccn2)c(CN(C2CCCCC2)C2CCCCC2)c1C(=O)c1ccc(Cl)cc1` [Example 34, {2-am ino-4-[(dicyclohexylamino)methyl]-5-(pyridin-2-yl)thiophen-3-yl}(4-chlorophenyl)methanone], the figure is 192 to 194 °C.
Consider `Nc1sc(-c2cccnc2)c(CN(C2CCCCC2)C2CCCCC2)c1C(=O)c1ccc(Cl)cc1` [Example 35, {2-amino-4-[(dicyclohexylamino)methyl]-5-(pyridin-3-yl)thiophen-3-yl}(4-chlorophenyl)methanone], for which the melting point was in the range of 168 to 170 °C.
Under `Nc1sc(-c2ccncc2)c(CN(C2CCCCC2)C2CCCCC2)c1C(=O)c1ccc(Cl)cc1` [Example 36, {2-amino-4-[(dicyclohexylamino)methyl]-5-(pyridin-4-yl)thiophen-3-yl}(4-chlorophenyl)methanone] stands 214 to 216 °C; under `Nc1sc(/C=C/CC2CCCCC2)c(CN(C2CCCCC2)C2CCCCC2)c1C(=O)c1ccc(Cl)cc1` [Example 37, (E)-{2-Amino-5-(3-cyclohexylprop-1-enyl)-4-[(dicyclohexylamino)methyl]thiophen-3-yl}(4-chlorophenyl)methanone], 147 to 150 °C.
Compound `Nc1sc(/C=C/Cc2ccc(Cl)cc2)c(CN(C2CCCCC2)C2CCCCC2)c1C(=O)c1ccc(Cl)cc1` [Example 38, (E)-{2-amino-5[3-(4-chlorophenyl)prop-1-enyl]-4-[(dicyclohexylamino)methyl]thiophen-3-yl}(4-chlorophenyl)methanone] displayed a melting point of 143 to 146 °C.
